Values joined by “and” are separate entries in the source; they are usually repeats but may differ in a detail not shown here. Identical values can stand only once. Toxic doses and inconclusive results are not listed.
Test system: BDF1 mice, P388 leukemia ip, median survival T/C
Test: NCI In Vivo Anticancer Drug Screen. Data for tumor model P388 Leukemia (intraperitoneal) in B6D2F1 (BDF1) mice
Details: endpoint: median survival time, higher = longer survival
Summary of the method: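 In tumour-bearing mice, survival after compound treatment is set against the vehicle group and given as a quotient.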

[1] = dose: 100.0 mg/kg/injection, schedule: Q01DX009 (ip), vehicle: Klucel (hydroxypropylcellulose) (HPC)
[2] = dose: 200.0 mg/kg/injection, schedule: Q01DX009 (ip), vehicle: Klucel (hydroxypropylcellulose) (HPC)
[3] = dose: 50.0 mg/kg/injection, schedule: Q01DX009 (ip), vehicle: Klucel (hydroxypropylcellulose) (HPC)
[4] = dose: 25.0 mg/kg/injection, schedule: Q01DX001 (ip), vehicle: saline with Tween-80
[5] = dose: 50.0 mg/kg/injection, schedule: Q01DX001 (ip), vehicle: saline with Tween-80
[6] = dose: 200.0 mg/kg/injection, schedule: Q01DX009 (ip), vehicle: saline with Tween-80
[7] = dose: 100.0 mg/kg/injection, schedule: Q04DX003 (ip), vehicle: Klucel (hydroxypropylcellulose) (HPC)
[8] = dose: 200.0 mg/kg/injection, schedule: Q04DX003 (ip), vehicle: Klucel (hydroxypropylcellulose) (HPC)
[9] = dose: 400.0 mg/kg/injection, schedule: Q01DX009 (ip), vehicle: Klucel (hydroxypropylcellulose) (HPC)
[10] = dose: 400.0 mg/kg/injection, schedule: Q04DX003 (ip), vehicle: Klucel (hydroxypropylcellulose) (HPC)

With `O=C(CCNC(=O)OCc1ccccc1)NC(CSCc1ccccc1)C(=O)O` (centres undefined) the T/C (dose: 12.5 mg/kg/injection, schedule: Q04DX003 (ip), vehicle: water) was 112 % of control, the T/C (dose: 25.0 mg/kg/injection, schedule: Q04DX003 (ip), vehicle: water) was 118 % of control and the T/C (dose: 50.0 mg/kg/injection, schedule: Q04DX003 (ip), vehicle: water) was 114 % of control. For the same compound, the T/C (dose: 100.0 mg/kg/injection, schedule: Q04DX003 (ip), vehicle: water) was 105 % of control and the T/C (dose: 200.0 mg/kg/injection, schedule: Q04DX003 (ip), vehicle: water) was 103 % of control.
`COc1cc2c(c(OC)c1OC)CCC1(C)C(=O)NN=C21` (centres undefined) was tested, and the T/C [1] was 108 % of control and the T/C [2] was 106 % of control.
`COc1ccc(/C(=N/N)C(C)(C)C)cc1` was tested, and the T/C (dose: 50.0 mg/kg/injection, schedule: Q01DX009 (ip), vehicle: saline with Tween-80) was 88 % of control.
For `CC(C(=O)O)C(=O)O.[NH-]CC[NH-].[Pt+2]`, the T/C (dose: 3.13 mg/kg/injection, schedule: Q01DX009 (ip), vehicle: water) was 167 % of control, the T/C (dose: 6.25 mg/kg/injection, schedule: Q01DX009 (ip), vehicle: water) was 181 % of control and the T/C (dose: 12.5 mg/kg/injection, schedule: Q01DX009 (ip), vehicle: water) was 90 % of control. The T/C (dose: 25.0 mg/kg/injection, schedule: Q01DX009 (ip), vehicle: water) was 214 % of control.
`CC(=O)C(C)(c1ccccc1)N(Cc1ccccc1)C(=O)c1ccccc1` (centres undefined) was tested, and the T/C (dose: 100.0 mg/kg/injection, schedule: Q01DX001 (ip), vehicle: saline) was 109 % of control, the T/C (dose: 200.0 mg/kg/injection, schedule: Q01DX001 (ip), vehicle: saline) was 109 % of control and the T/C (dose: 400.0 mg/kg/injection, schedule: Q01DX001 (ip), vehicle: saline) was 104 % of control.
`C=CCN(CC=C)CCN(CC)CC` was tested, and the T/C (dose: 6.25 mg/kg/injection, schedule: Q01DX009 (ip), vehicle: saline) was 111 % of control, the T/C (dose: 12.5 mg/kg/injection, schedule: Q01DX009 (ip), vehicle: saline) was 101 % of control and the T/C (dose: 25.0 mg/kg/injection, schedule: Q01DX009 (ip), vehicle: saline) was 109 % of control. For the same compound, the T/C (dose: 50.0 mg/kg/injection, schedule: Q01DX009 (ip), vehicle: saline) was 101 % of control.
`CCCCNC(=S)Nc1sc(C)c(C)c1C(=O)OCC` was tested, and the T/C (dose: 100.0 mg/kg/injection, schedule: Q04DX003 (ip), vehicle: saline with Tween-80) was 106 % of control, the T/C (dose: 200.0 mg/kg/injection, schedule: Q04DX003 (ip), vehicle: saline with Tween-80) was 99 % of control and the T/C (dose: 400.0 mg/kg/injection, schedule: Q04DX003 (ip), vehicle: saline with Tween-80) was 99 % of control.
With `Cc1cc[n+](C)c2ccccc12` the T/C (dose: 9.37 mg/kg/injection, schedule: Q04DX003 (ip), vehicle: saline) was 100 % of control and the T/C (dose: 18.75 mg/kg/injection, schedule: Q04DX003 (ip), vehicle: saline) was 100 % of control.
In the case of `Cc1nc(N)c([N+](=O)[O-])cc1[N+](=O)[O-]`, the T/C (dose: 100.0 mg/kg/injection, schedule: Q01DX001 (ip), vehicle: Klucel (hydroxypropylcellulose) (HPC)) is reported as 87 % of control.
`CC1CCCC[N-]1.CC1CCCC[N-]1.[Cl][Pt+2][Cl]` (centres undefined) was tested, and the T/C [3] was 103 % of control and the T/C [1] was 97 % of control.
For `O=C1C=C/C(=N/S(=O)(=O)c2ccccc2)c2ccccc21`, the T/C (dose: 0.37 mg/kg/injection, schedule: Q01DX009 (ip), vehicle: DMSO) was 100 % of control, the T/C (dose: 0.75 mg/kg/injection, schedule: Q01DX009 (ip), vehicle: DMSO) was 100 % of control and the T/C (dose: 1.5 mg/kg/injection, schedule: Q01DX009 (ip), vehicle: DMSO) was 100 % of control. For the same compound, the T/C (dose: 12.0 mg/kg/injection, schedule: Q01DX009 (ip), vehicle: DMSO) was 92 % of control, the T/C (dose: 25.0 mg/kg/injection, schedule: Q04DX003 (ip), vehicle: DMSO) was 91 % of control and the T/C (dose: 50.0 mg/kg/injection, schedule: Q04DX003 (ip), vehicle: DMSO) was 104 % of control. The T/C (dose: 100.0 mg/kg/injection, schedule: Q04DX003 (ip), vehicle: DMSO) was 100 % of control.
In the case of `CN1C(=O)C(Br)=C(c2cccs2)C1=O`, the T/C [4] is reported as 109 % of control and the T/C [5] is reported as 103 % of control.
`Cn1c(=O)c2nc(-c3ccc(Cl)c(Cl)c3)c(-c3ccc(Cl)c(Cl)c3)nc2n(C)c1=O` was tested, and the T/C (dose: 3.13 mg/kg/injection, schedule: Q01DX001 (ip), vehicle: saline with Tween-80) was 100 % of control, the T/C (dose: 6.25 mg/kg/injection, schedule: Q01DX001 (ip), vehicle: saline with Tween-80) was 101 % of control and the T/C (dose: 12.5 mg/kg/injection, schedule: Q01DX001 (ip), vehicle: saline with Tween-80) was 99 % of control. For the same compound, the T/C [4] was 90 % of control and 101 % of control, the T/C [5] was 107 % of control and the T/C (dose: 100.0 mg/kg/injection, schedule: Q01DX001 (ip), vehicle: saline with Tween-80) was 87 % of control. For the same compound, the T/C (dose: 400.0 mg/kg/injection, schedule: Q01DX001 (ip), vehicle: saline with Tween-80) was 96 % of control.
`O=C(Cn1ccc(=O)[nH]c1=O)Nc1nccs1` was tested, and the T/C (dose: 3.12 mg/kg/injection, schedule: Q04DX003 (ip), vehicle: saline) was 93 % of control, the T/C (dose: 6.25 mg/kg/injection, schedule: Q04DX003 (ip), vehicle: saline) was 107 % of control and 121 % of control and the T/C (dose: 12.5 mg/kg/injection, schedule: Q04DX003 (ip), vehicle: saline) was 110 % of control and 121 % of control. The T/C (dose: 25.0 mg/kg/injection, schedule: Q04DX003 (ip), vehicle: saline) was 109 % of control and 121 % of control.
With `CCC(=O)O[C@H]1CC[C@H]2[C@@H]3[C@@H](C)CC4=CC(=O)CC[C@]4(C)[C@H]3CC[C@]12C` the T/C (dose: 100.0 mg/kg/injection, schedule: Q01DX009 (ip), vehicle: saline with Tween-80) was 105 % of control, the T/C [6] was 95 % of control and the T/C (dose: 400.0 mg/kg/injection, schedule: Q01DX009 (ip), vehicle: saline with Tween-80) was 95 % of control.
For `C(=C/c1ccc(/C=C/c2ccccc2)cc1)/c1ccccc1`, the T/C (dose: 65.0 mg/kg/injection, schedule: Q01DX009 (ip), vehicle: Klucel (hydroxypropylcellulose) (HPC)) was 100 % of control, the T/C (dose: 66.7 mg/kg/injection, schedule: Q01DX009 (ip), vehicle: Klucel (hydroxypropylcellulose) (HPC)) was 111 % of control and the T/C [1] was 94 % of control and 95 % of control. The T/C [7] was 90 % of control, the T/C (dose: 150.0 mg/kg/injection, schedule: Q01DX009 (ip), vehicle: Klucel (hydroxypropylcellulose) (HPC)) was 100 % of control and 116 % of control and the T/C [8] was 110 % of control. For the same compound, the T/C [9] was 113 % of control and the T/C [10] was 105 % of control.
With `Cc1ccc(S(=O)(=O)N2CC3CC2CN3Cc2ccccc2)cc1` (centres undefined) the T/C [1] was 109 % of control, the T/C [7] was 104 % of control and the T/C [2] was 104 % of control. The T/C [8] was 100 % of control, the T/C [9] was 100 % of control and the T/C [10] was 95 % of control.
For `C[C@]12CC[C@H](O)C[C@@H]1CC[C@@H]1[C@@H]2C(=O)C[C@@]2(C)[C@H]1CC[C@]2(O)C(=O)CBr`, the T/C (dose: 12.5 mg/kg/injection, schedule: Q01DX009 (ip), vehicle: saline with Tween-80) was 114 % of control, the T/C [3] was 113 % of control and the T/C [1] was 109 % of control. The T/C [7] was 100 % of control, the T/C [6] was 118 % of control and the T/C [8] was 109 % of control. The T/C [10] was 113 % of control.
`CCCCCCCCCCCCCCCCCC(=O)[O][Sn]([CH2]CCC)([CH2]CCC)[O]C(=O)CCCCCCCCCCCCCCCCC` was tested, and the T/C (dose: 12.5 mg/kg/injection, schedule: Q04DX003 (ip), vehicle: other) was 121 % of control.
For `CNC(=O)OCc1c(COC(=O)NC)c(-c2ccc(Cl)cc2)n2c1CCC2`, the T/C [3] was 96 % of control.
`COc1cc2nccc3c4ccccc4n(c1=O)c23` was tested, and the T/C (dose: 100.0 mg/kg/injection, schedule: Q01DX010 (ip), vehicle: saline) was 90 % of control, the T/C (dose: 200.0 mg/kg/injection, schedule: Q01DX010 (ip), vehicle: saline) was 90 % of control and the T/C (dose: 400.0 mg/kg/injection, schedule: Q01DX010 (ip), vehicle: saline) was 95 % of control. The T/C (dose: 800.0 mg/kg/injection, schedule: Q01DX010 (ip), vehicle: saline) was 100 % of control.
In the case of `CCN(CC)CCOC(=O)c1ccccc1N(c1ccccc1)c1ccccc1`, the T/C (dose: 62.5 mg/kg/injection, schedule: Q01DX009 (ip), vehicle: Klucel (hydroxypropylcellulose) (HPC)) is reported as 118 % of control and the T/C (dose: 125.0 mg/kg/injection, schedule: Q01DX009 (ip), vehicle: Klucel (hydroxypropylcellulose) (HPC)) is reported as 118 % of control.
In the case of `CCOC(=O)C(=O)Cc1sccc1[N+](=O)[O-]`, the T/C [1] is reported as 105 % of control, the T/C [7] is reported as 86 % of control and the T/C [2] is reported as 100 % of control. For the same compound, the T/C [9] was 105 % of control and the T/C [10] was 91 % of control.

— PubChem BioAssay AID328 (DTP/NCI, 2004)
